Toxic doses and inconclusive results are not listed. How the source made its calls: active means survival T/C of 150% or more; inactive means T/C below 125% in these data.
System: CD2F1 mice, L1210 leukemia ip, survival T/C
Assay: NCI In Vivo Anticancer Drug Screen. Data for tumor model L1210 Leukemia (intraperitoneal) in CD2F1 (CDF1) mice
Conditions: endpoint: mean survival time, higher = longer survival
In short: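 Tumor-bearing mice (transplanted tumor) were split into treated and vehicle control groups, and the measured endpoint of each treated group was divided by that of its vehicle controls.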

[1] = dose: 100.0 mg/kg/injection, schedule: Q01DX009 (ip), vehicle: saline with Tween-80
[2] = dose: 200.0 mg/kg/injection, schedule: Q01DX009 (ip), vehicle: saline with Tween-80
[3] = dose: 400.0 mg/kg/injection, schedule: Q01DX009 (ip), vehicle: saline with Tween-80

Measured: T/C

CCOC(=O)C(C(=O)OCC)C(C)C
inactive: dose: 100.0 mg/kg/injection, schedule: Q01DX001 (ip), vehicle: saline 97 % of control | dose: 200.0 mg/kg/injection, schedule: Q01DX001 (ip), vehicle: saline 97 % of control | dose: 400.0 mg/kg/injection, schedule: Q01DX001 (ip), vehicle: saline 110 % of control

CCOC(=O)CCc1ccc2c(c1)OCO2
inactive: [1] 103 % of control | [2] 103 % of control | [3] 113 % of control

N#C/C(=N\Nc1ccc(S(=O)(=O)O)cc1)C(N)=O
inactive: [1] 95 % of control | [2] 91 % of control | [3] 94 % of control
